Counter-ions that a name gives are not always drawn.
Legend:
[1] = rat; cited from earlier work
[2] = test system: human osteoblasts; assay: Cellular proliferation test; format: cell-based; details: for cells proliferation (number of cells, colorimetric test at 540 nm): human osteoblasts, medium without FCS with BSA, increasing doses, 5 days, FIG. 1 / FIG. 2
Description: (§1) The differentiated human osteoblasts were prepared starting from bone fragments obtained during surgical operation following the procedure described in Calcif. Tissue Int. 62: 362–365, 1998; and in Calcif. Tissue Int. 37: 453–460, 1985.
(§2) In short, bone fragments were undertaken to enzymatic digestion with collagenase (1 mg/ml) diluted in phosphate buffer in order to remove fibroblasts, haematic endothelial cells or bone marrow cells, if any.
(§3) The fragments so cleaned were maintained in culture in presence of a medium containing 20% of foetal calf serum (FCS) to obtain osteoblasts population for explant.
(§4) The cells so obtained were characterised to verify their osteoblastic phenotype then used for the experiments.
The cellular proliferation test was done growing the cells in 96 well plates, in medium without FCS, and with bovine serum albumin (BSA).
The cells were exposed to increasing doses of L-carnitine fumarate and isovaleryl L-carnitine fumarate. The positive control group was constituted by cells growing in presence of FCS (15%).
Every 24 ore, for 5 days, samples from plates in culture were fixed with a solution of paraformaldehyde at 3%, the cells were stained with crystal-violet at 0.5%, washed to eliminate the excess of stain and a solution of sodium citrate 0.1 M in ethanol was added. The number of the cells contained in the wells was evaluated by colorimetric test at 540 nm.

[3] = test system: osteocalcine; details: mice, during formation of the bone matrix; cited from earlier work
[4] = test system: human osteoblasts; assay: Production of collagen by incorporation of 3H-proline; format: cell-based; details: FIG. 3
Description: as §1, §2, §3, §4
The collagen production represents a method for the evaluation of the osteoblast activity.
This production was evaluated on semiconfluent cells grown on 24 wells plates, in medium without serum (FCS) containing 1 μCi/well of ^3H-proline, both in the wells of the control and in the wells where were present the tested compounds. After 4 hours of incubation in presence of the tracer the cells were lysed and undertaken to an extraction procedure (Journal of Bone and Mineral Research, 2000; Vol. 15(2); 188–97). […] The radioactivity of the cells, as index of the cells collagen synthesis, was evaluated with a beta-counter.

## C[N+](C)(C)CC(O)CC(=O)[O-] (racemic) [D,L-carnitine]
[1]
  bone calcium: increases the bone calcium

## C[N+](C)(C)C[C@H](O)CC(=O)[O-].O=C(O)/C=C/C(=O)O [L-carnitine fumarate, reference compound]
[2]
  cells proliferation (number of cells, colorimetric test at 540 nm): cells proliferation induced by L-carnitine fumarate

## C[N+](C)(C)C[C@H](O)CC(=O)[O-] [L-carnitine]
[3]
  production of osteocalcine (index of better calcification): increase the production of osteocalcine

## CC(=O)O[C@H](CC(=O)[O-])C[N+](C)(C)C [acetyl L-carnitine]
[3]
  production of osteocalcine (index of better calcification): reduces the production of this marker

## CC(C)CC(=O)O[C@H](CC(=O)[O-])C[N+](C)(C)C [isovaleryl L-carnitine fumarate]
[2]; FIG. 1 versus FIG. 2
  cells proliferation compared with L-carnitine fumarate: induces cells proliferation (FIG. 1) in a more potent way
[2]; dose 10 times lower than that of L-carnitine fumarate
  cellular proliferation activity at 10^-3 M compared with L-carnitine fumarate at 10^-2 M: has the same cellular proliferation activity
[2]
  cells proliferation (number of cells, colorimetric test at 540 nm): promotes cells proliferation
[4]; Student t test
  production of collagen respect to the same doses of L-carnitine fumarate: favouring activity for the production of collagen in a significant way
[4]; semiconfluent cells, medium without serum, 4 hours of incubation with tracer
  production of collagen (3H-proline incorporation) respect to the control sample: increases the production of collagen in an higher way respect to the control sample
